The values below come from ChEMBL document CHEMBL1142913, “Novel synthesis of [1]-benzothiepino[5,4-b]pyridine-3-carbonitriles and their anti-inflammatory properties” (Bioorg Med Chem, 2007).

In general, inhibition in vivo refers to the change of the read-out against control, counted positive when it falls.

SMILES strings stand for the structures.

The test system of series [1] is Rattus norvegicus. The series can be described thus: Antiinflammatory activity against carrageenan-induced paw oedema in Wistar Albino rat assessed as mean swelling paw volume at 50 mg/kg, ip after 2 hrs. In kind it is functional. The settings on record: route intraperitoneal. (In the carrageenan paw model, swelling and tenderness develop within hours.)
The subject of series [2] is Rattus norvegicus. The series can be described thus: Antiinflammatory activity in Wistar Albino rat assessed as inhibition of carrageenan-induced paw oedema at 50 mg/kg, ip after 2 hrs. In kind it is functional. The settings on record: route intraperitoneal.
In series [3] the test system is Rattus norvegicus. Nature of the series: Antiinflammatory activity in Wistar Albino rat assessed as inhibition of carrageenan-induced paw oedema at 50 mg/kg, ip after 4 hrs. The settings on record: route intraperitoneal. In kind it is functional.
Series [4] concerns Rattus norvegicus. The series can be described thus: Antiinflammatory activity against carrageenan-induced paw oedema in Wistar Albino rat assessed as mean swelling paw volume at 50 mg/kg, ip after 3 hrs. The settings on record: route intraperitoneal. In kind it is functional.
The subject of series [5] is Rattus norvegicus. Nature of the series: Antiinflammatory activity in Wistar Albino rat assessed as inhibition of carrageenan-induced paw oedema at 50 mg/kg, ip after 1 hr. In kind it is functional. The settings on record: route intraperitoneal.
Series [6] concerns Rattus norvegicus. Nature of the series: Antiinflammatory activity against carrageenan-induced paw oedema in Wistar Albino rat assessed as mean swelling paw volume at 50 mg/kg, ip after 1 hr. Type of series: functional. The settings on record: route intraperitoneal.
In series [7] the test system is Rattus norvegicus. Nature of the series: Antiinflammatory activity in Wistar Albino rat assessed as inhibition of carrageenan-induced paw oedema at 50 mg/kg, ip after 3 hrs. The settings on record: route intraperitoneal. Type of series: functional.
The test system of series [8] is Rattus norvegicus. Nature of the series: Antiinflammatory activity against carrageenan-induced paw oedema in Wistar Albino rat assessed as mean swelling paw volume at 50 mg/kg, ip after 4 hrs. In kind it is functional. The settings on record: route intraperitoneal.
The test system of series [9] is Mus musculus. The series can be described thus: Toxicity in intraperitoneally dosed Albino mouse after 24 hrs. The settings on record: in vivo, ip. Type of series: organism-based.
In series [10] the test system is Rattus norvegicus. The series can be described thus: Antiinflammatory activity in Wistar Albino rat assessed as inhibition of carrageenan-induced paw oedema at 5 mg/kg, ip after 3 hrs. Type of series: functional. The settings on record: route intraperitoneal.
The test system of series [11] is Rattus norvegicus. The series can be described thus: Antiinflammatory activity in Wistar Albino rat assessed as inhibition of carrageenan-induced paw oedema at 5 mg/kg, ip after 2 hrs. Type of series: functional. The settings on record: route intraperitoneal.
For series [12], the system named is Rattus norvegicus. Nature of the series: Antiinflammatory activity against carrageenan-induced paw oedema in Wistar Albino rat assessed as mean swelling paw volume at 5 mg/kg, ip after 3 hrs. Type of series: functional. The settings on record: route intraperitoneal.
The test system of series [13] is Rattus norvegicus. The series can be described thus: Antiinflammatory activity in Wistar Albino rat assessed as inhibition of carrageenan-induced paw oedema at 5 mg/kg, ip after 1 hr. In kind it is functional. The settings on record: route intraperitoneal.
Series [14] has as its system Rattus norvegicus. The series can be described thus: Antiinflammatory activity against carrageenan-induced paw oedema in Wistar Albino rat assessed as mean swelling paw volume at 5 mg/kg, ip after 2 hrs. Type of series: functional. The settings on record: route intraperitoneal.
Series [15] deals with Rattus norvegicus. Nature of the series: Antiinflammatory activity against carrageenan-induced paw oedema in Wistar Albino rat assessed as mean swelling paw volume at 5 mg/kg, ip after 1 hr. The settings on record: route intraperitoneal. In kind it is functional.
In series [16] the test system is Rattus norvegicus. The series can be described thus: Antiinflammatory activity against carrageenan-induced paw oedema in Wistar Albino rat assessed as mean swelling paw volume at 5 mg/kg, ip after 4 hrs. Type of series: functional. The settings on record: route intraperitoneal.
Series [17] concerns Rattus norvegicus. Nature of the series: Antiinflammatory activity in Wistar Albino rat assessed as inhibition of carrageenan-induced paw oedema at 5 mg/kg, ip after 4 hrs. Type of series: functional. The settings on record: route intraperitoneal.

For `C1COCCN1.COc1ccc(-c2c(C#N)c(S)[nH]c(=S)c2C#N)cc1.O`, the Activity was found to be 0.498 mL in series [1], 0.44 mL in series [4], 0.42 mL in [6] and 0.536 mL in series [8]. Further, the inhibition in vivo at 50 mg/kg in series [2] was determined as 55.5%; in series [3], 66.5%; in series [5] it was 30.6%; in series [7] it was 67.8%.
Consider `COc1nc2c(c(-c3ccccc3)c1C#N)CCSc1ccccc1-2`, for which the Activity in series [1] turned out to be 0.437 mL; in series [4] it was 0.558 mL; in series [6] it was 0.278 mL; in series [8] it was 0.305 mL. The inhibition in vivo at 50 mg/kg in series [2] worked out at 61%; in series [3] it was 80.9%; in series [5], 54%; in series [7] it was 59.2%.
Consider `COc1nc2c(c(-c3ccco3)c1C#N)CCSc1ccccc1-2`, for which the Activity in series [1] was 0.548 mL; in series [4], 0.572 mL; in series [6] it was 0.124 mL; in [8], 0.508 mL. The inhibition in vivo at 50 mg/kg in series [2] was 51.1%; in series [3], 68.3%; in series [5] it was 79.5%; in [7], 58.2%.
For the compound `COc1nc2c(c(-c3ccc(Cl)cc3)c1C#N)CCSc1ccccc1-2`, the Activity in series [1] is 0.283 mL; in [4], 0.277 mL; in series [6], 0.223 mL; in [8], 0.396 mL. Moreover, the inhibition in vivo at 50 mg/kg in series [2] was 74.7%; in series [3], 75.3%; in series [5] it was 63.1%; in series [7], 79.8%.
Regarding `CCOc1nc2c(c(-c3ccc(Cl)cc3)c1C#N)CCSc1ccccc1-2`, the Activity was 0.138 mL in series [1]; 0.158 mL in series [4]; “Non-toxic” in [9]; 0.113 mL in series [6]; 0.212 mL in series [8]. The inhibition in vivo at 50 mg/kg in series [2] is 87.7%; in series [3], 86.8%; in series [5], 81.3%; in series [7], 88.5%.
`COc1ccc(-c2c(C#N)c(OC)nc3c2CCSc2ccccc2-3)cc1`: the Activity in series [1] was 0.203 mL; in series [4], 0.178 mL; in series [9], “Non-toxic”; in [6], 0.25 mL; in series [8], 0.238 mL. In addition, the inhibition in vivo at 50 mg/kg in series [2] was determined as 81.9%; in series [3], 85.1%; in [5], 58.7%; in [7], 87%.
For `N#Cc1c(-c2ccc(Br)cc2)c2c([nH]c1=S)-c1ccccc1SCC2`, the Activity in series [1] worked out at 0.485 mL; in series [4], 0.495 mL; in series [6] it was 0.375 mL; in series [8], 0.485 mL. The inhibition in vivo at 50 mg/kg in series [2] was 56.7%; in series [3] it was 69.7%; in [5] it was 38%; in [7] it was 63.8%.
`CCOc1nc2c(c(-c3ccc(OC)cc3)c1C#N)CCSc1ccccc1-2`: the Activity was 0.23 mL in series [1]; 0.128 mL in series [4]; “Non-toxic” in series [9]; 0.23 mL in [6]; 0.2 mL in series [8]. The inhibition in vivo at 50 mg/kg in series [2] was determined as 79.5%; in series [3], 87.5%; in series [5], 62%; in series [7], 90.6%.
Regarding `COc1ccc(-c2c3c([nH]c(=S)c2C#N)-c2ccccc2SCC3)cc1`, the Activity in series [1] turned out to be 0.355 mL; in series [4] it was 0.5 mL; in series [6], 0.275 mL; in series [8] it was 0.7 mL. For the same compound, the inhibition in vivo at 50 mg/kg stood at 68.3% in series [2], 56.3% in [3], 54.5% in [5] and 63.5% in series [7].
Consider `C1CCNCC1.COc1ccc(-c2c(C#N)c(S)[nH]c(=S)c2C#N)cc1.O`, for which the Activity in series [1] is 0.594 mL; in series [4], 0.588 mL; in [6], 0.548 mL; in series [8], 0.658 mL. Also, the inhibition in vivo at 50 mg/kg amounted to 47% in [2], 58.9% in series [3], 9.4% in series [5] and 57% in [7].
`COc1nc2c(c(-c3cccs3)c1C#N)CCSc1ccccc1-2`: the Activity amounted to 0.447 mL in [1], 0.6 mL in series [4], 0.27 mL in series [6] and 0.695 mL in series [8]. The inhibition in vivo at 50 mg/kg in series [2] was 60.1%; in series [3], 56.6%; in [5] it was 55.4%; in series [7], 56.1%.
With `COc1ccc2c(c1)c(CC(=O)O)c(C)n2C(=O)c1ccc(Cl)cc1` [INDOMETHACIN], the inhibition in vivo at 5 mg/kg was 66.4% in [10], 82.6% in series [11], 71.1% in series [13] and 82.6% in [17]. The Activity came to 0.46 mL in [12], 0.195 mL in series [14], 0.175 mL in series [15] and 0.278 mL in series [16].
